These results are taken from US6166008A, “Treatment of schizophrenia with ampakines and neuroleptics” (Cortex Pharmaceuticals, Inc., priority 1998, dated 2000).

Structures are written as SMILES. “Also recorded” adds a separate entry of the source. Counter-ions that a name gives are not always drawn.

For orientation: EC50 means the concentration that produces a half-maximal response.

One data set concerns AMPA receptors. Put plainly: Field EPSP amplitude in rat hippocampal slices. The following applies: field CA1, read-out: EC50 values to increase the amplitude of the field EPSP. Type of data set: cell-based. Here is the method: The physiological effects of Ampakines may be tested in vitro with slices of rat hippocampus according to the following procedure. Excitatory responses (field EPSPs) are measured in hippocampal slices, which are maintained in a recording chamber continuously perfused with artificial cerebrospinal fluid (ACSF). During a 15-30 minute interval, the perfusion medium is switched to one containing various concentrations of the test compounds. Responses collected immediately before and at the end of drug perfusion were superimposed in order to calculate both the percent increase in EPSP amplitude and percent increase in the width of the response at one-half the peak height (half-width). […]
Current pulses (0.1 msec) through the stimulating electrode activate a population of the Schaffer-commissural (SC) fibers which arise from neurons in the field CA3 and terminate in synapses on the dendrites of CA1 neurons. […] This current results in a voltage in the extracellular space (the field excitatory post-synaptic potential or field "EPSP") which is recorded by a high impedance recording electrode positioned in the middle of the stratum radiatum of CA1. […]

The subject of another data set is Adrenergic receptor. Put plainly: Radioligand binding, [^3 H]-Prazosin. From the text: (§1) Table 2 presents the results of radioligand binding studies that show a lack of interaction between Ampakines and dopaminergic or serotonergic receptors.
(§2) Radioligand Binding Analysis of Potential Interactions between
(§3) Select Ampakines and Select Neurotransmitter Receptors

The subject of another data set is Dopaminergic receptor. Put plainly: Radioligand binding, [^3 H]-Spiperone.
Text: as §1, §2, §3

A further data set deals with Muscarinic receptor. Put plainly: Radioligand binding, [^3 H]-QNB.
Text: as §1, §2, §3

In a further data set the test system is Serotoninergic receptor. Put plainly: Radioligand binding, [^3 H]-dLSD.
Text: as §1, §2, §3

Data set [1] has as its system AMPA-type glutamate receptors. Put plainly: Specificity for AMPA-type glutamate receptors.
Text: as §1

Data set [2] has as its system methamphetamine-induced rearing activity. Put plainly: Methamphetamine-induced stereotypic rearing activity (photobeam system). The following applies: for total cumulative rearing activity during the 90 minute period after drug administration: FIG. 2, METH 2 mg/kg in all, combination p<0.0005 vs METH+clozapine, saline 56±9; for total cumulative rearing activity during the 90 minute period after drug administration / total rearing activity during the 90 minute test period: i.p., mean±standard error; for reduction of methamphetamine-induced rearing activity: FIG. 3 legend; for total rearing activity during the 90 minute test period: FIG. 4, METH in all, combination p<0.0005 vs METH+HAL, saline 53±11; for Percent Reduction in Methamphetamine Induced Activity: Rearing: Table 1; for reduction of METH-induced rearing: risperidone 0.1 mg/kg, combination p<0.01 vs METH+RISP.
Text: (§4) In the present experiments, male Sprague-Dawley rats (250-300 g; Charles River Laboratories) were given ad libitum food and water and maintained on a 12:12 hr light:dark cycle with lights on at 6:00 AM. […] Locomotor and rearing activities were continuously monitored by computer for all ten test cages. Test cages (with photobeam arrays) were placed in a partially darkened room with room ventilation as background noise. On the test day, naive rats were initially placed in the test cages and baseline behavioral activity in the novel environment was monitored during a 30-minute acclimation period. The rats were then injected (i.p.) with vehicle or drug(s) dissolved in vehicle and immediately returned to the test cage and monitored undisturbed for 90 minutes.
(§5) Behavioral experiments were repeated at least twice for each condition. Photobeam breaks were summed by the computer into ten-minute periods for analysis. Group means and standard errors are reported in the figures; means and standard deviations were used for statistical analysis by unpaired, two-tailed t test assuming unequal variance.

Data set [3] concerns methamphetamine-induced locomotor activity. Put plainly: Methamphetamine-induced locomotor activity / crossing (photobeam system). The following applies: for Percent Reduction in Methamphetamine Induced Activity: Crossing: Table 1; for reduction of METH LMA: text of Example 3, locomotor activity, haloperidol 0.06 mg/kg, combination p<0.005 vs METH+HAL.
Text: as §4, §5
In the next data set the test system is D2 dopamine receptor. As to conditions: typical antipsychotics; cited from earlier work.
The test system of the next data set is serotonin receptors. As to conditions: atypical antipsychotics; cited from earlier work.
The test system of a further data set is dopamine receptors. As to conditions: atypical antipsychotics; cited from earlier work.
The conditions of data set [4]: peripheral administration in humans; Guenzi and Zanetti; cited from earlier work.
A further data set deals with behavior in animals. The following applies: Freed et al.; cited from earlier work.
The next data set relates to psychotic symptoms. The following applies: cited from earlier work; for effect on symptoms in patients: Lahti et al.; for effect in volunteers: Krystal et al.
Where [5] appears, read: clozapine 1.0 mg/kg, CX516 10 mg/kg.
The mark [6] stands for this setting: clozapine 1 mg/kg experiment, CX516 10 mg/kg.
Where [7] appears, read: fluphenazine 0.2 mg/kg experiment, CX516 10 mg/kg.
[8] abbreviates: haloperidol 0.06 mg/kg experiment, CX516 30 mg/kg.
Where [9] appears, read: risperidone 0.1 mg/kg experiment, CX516 10 mg/kg.
Setting [10] is: clozapine experiment, METH 2 mg/kg i.p., clozapine 1.0 mg/kg, CX516 10 mg/kg.
[11] abbreviates: haloperidol experiment, HAL 0.06 mg/kg, CX516 30 mg/kg.
Where [12] appears, read: text of Example 2, CX516 10 mg/kg.

`O=C(c1ccc2nccnc2c1)N1CCCCC1` [CX516, 1-(Quinoxalin-6-ylcarbonyl)piperidine]: the 50% effective concentration (EC50) in the data set on AMPA receptors came out at 180 µM. Also, the “% Inhibition of ligand binding” value in the data set on Adrenergic receptor (1E-5 Molar) is recorded as -0.2%; with Adrenergic receptor (1E-7 Molar) it was -3.5%; in the data set on Adrenergic receptor (1E-9 Molar) it was 0.0%; with Dopaminergic receptor (1E-5 Molar), -2.8%; in the data set with Dopaminergic receptor (1E-7 Molar), 0.6%; in the data set with Dopaminergic receptor (1E-9 Molar), -5.1%. For the same molecule, the “% Inhibition of ligand binding” value with Muscarinic receptor (1E-5 Molar) was determined as 5.3%; in the data set with Muscarinic receptor (1E-7 Molar) it was 0.4%; with Muscarinic receptor (1E-9 Molar), 5.5%; in the data set on Serotoninergic receptor (1E-5 Molar) it was 9.1%; in the data set with Serotoninergic receptor (1E-7 Molar), 9.9%; in the data set with Serotoninergic receptor (1E-9 Molar), 5.5%. Moreover, the “specificity for AMPA-type glutamate receptors” value in data set [1] was “quite specific for AMPA-type glutamate receptors”. For the same molecule, the “total cumulative rearing activity during the 90 minute period after drug administration” value in data set [2] (setting [5]) was found to be 495±78. Moreover, the “reduction of methamphetamine-induced rearing activity” value in data set [2] (CX516 30 mg/kg, HAL 0.06 mg/kg) is recorded as 23%. For the same molecule, in data set [2] (HAL 0.06 mg/kg, CX516 30 mg/kg), the “total rearing activity during the 90 minute test period” value stood at 863±169. Besides, the “Percent Reduction in Methamphetamine Induced Activity: Rearing” value (“Percent Reduction … Rearing” for short) is on record as 34% in [2] (setting [6]), 37% in [2] (setting [7]), 23% in data set [2] (setting [8]) and 28% in data set [2] (setting [9]). The “effect on methamphetamine-induced rearing” value in data set [2] (setting [10]) is reported as “synergistically enhanced the antagonistic activity of clozapine; also recorded: synergistically enhances clozapine antagonism of methamphetamine-induced rearing activity; also recorded: small, but statistically insignificant antagonism of methamphetamine-induced rearing”; in [2] (setting [11]), “modest, non-significant antagonism; also recorded: synergistically enhances haloperidol antagonism of methamphetamine-induced stereotypic rearing activity; also recorded: Neither CX516 (30 mg/kg) nor HAL (0.06 mg/kg) significantly reduced methamphetamine-induced rearing activity”. For the same molecule, the “reduction of METH-induced rearing” value in [2] (setting [12]) is 28%. In addition, the “antagonism of METH-induced rearing activity” value in data set [2] (text of Example 2, clozapine 1.0 mg/kg alone, CX516 10 mg/kg alone) came out at 34%. The “reduction of METH-induced stereotypic rearing activity” value in data set [2] (text of Example 3, haloperidol 0.06 mg/kg, CX516 30 mg/kg, combination p<0.0005 vs haloperidol alone) came to 22%. Further, the “Percent Reduction in Methamphetamine Induced Activity: Crossing” value (from here on “Percent Reduction … Crossing”) is recorded as -32% in data set [3] (setting [6]), 47% in data set [3] (setting [7]), 10% in data set [3] (setting [8]) and 0% in [3] (setting [9]). For the same molecule, the “reduction of METH LMA” value in data set [3] (CX516 30 mg/kg) is recorded as 10%.

Consider `O=C(c1ccc2nonc2c1)N1CCCCC1` [CX691], for which the EC50 in the data set with AMPA receptors came to 3 µM. The “% Inhibition of ligand binding” value with Adrenergic receptor (1E-4 Molar) was 7.0%; in the data set with Adrenergic receptor (1E-7 Molar), -7.5%; in the data set with Dopaminergic receptor (1E-4 Molar), 10.7%; in the data set on Dopaminergic receptor (1E-7 Molar), 6.1%; in the data set with Muscarinic receptor (1E-4 Molar), -3.7%; in the data set on Muscarinic receptor (1E-7 Molar), -8.0%. Further, the “% Inhibition of ligand binding” value is listed as 27.0% in the data set with Serotoninergic receptor (1E-4 Molar) and 1.6% in the data set on Serotoninergic receptor (1E-7 Molar). Besides, the “specificity for AMPA-type glutamate receptors” value in [1] is listed as “quite specific for AMPA-type glutamate receptors”.

Take `OCCN1CCN(CCCN2c3ccccc3Sc3ccc(C(F)(F)F)cc32)CC1` [Fluphenazine, reference compound]: in the data set with D2 dopamine receptor, the “D2 dopamine receptor antagonism” value was “potently antagonize the D2 dopamine receptor”. For the same molecule, the “Percent Reduction … Rearing” value in data set [2] (setting [7]) worked out at 57%. Moreover, the “Percent Reduction … Crossing” value in [3] (setting [7]) turned out to be 54%.

As for `O=C(CCCN1CCC(O)(c2ccc(Cl)cc2)CC1)c1ccc(F)cc1` [Haloperidol, reference compound], the “D2 dopamine receptor antagonism” value in the data set with D2 dopamine receptor is reported as “potently antagonize the D2 dopamine receptor”. In addition, the “reduction of methamphetamine-induced rearing activity” value in data set [2] (CX516 30 mg/kg, HAL 0.06 mg/kg) was 16%. Further, the “total rearing activity during the 90 minute test period” value in data set [2] (HAL 0.06 mg/kg, CX516 30 mg/kg) turned out to be 934±119. In addition, the “Percent Reduction … Rearing” value in data set [2] (setting [8]) is 16%. Further, the “effect on methamphetamine-induced rearing” value in data set [2] (setting [11]) is “modest, non-significant antagonism”; in [2] (haloperidol experiment, HAL 0.06 mg/kg, CX516 30 mg/kg, listed as HAL) it was “Neither CX516 (30 mg/kg) nor HAL (0.06 mg/kg) significantly reduced methamphetamine-induced rearing activity”. For the same molecule, the “Percent Reduction … Crossing” value in data set [3] (setting [8]) was found to be 9%. In addition, in data set [3] (CX516 30 mg/kg), the “reduction of METH LMA” value is 9%.

`CN[C@@H](C)Cc1ccccc1` [METH, S-(+)-methamphetamine HCl, reference compound]: in data set [2] (setting [5]), the “total cumulative rearing activity during the 90 minute period after drug administration” value was found to be 724±136. For the same molecule, the “total rearing activity during the 90 minute test period” value in data set [2] (HAL 0.06 mg/kg, CX516 30 mg/kg) was determined as 1105±161. Also, in [2] (setting [10]), the “effect on methamphetamine-induced rearing” value is “large induction of rearing activity”.

In the case of `Cc1nc2n(c(=O)c1CCN1CCC(c3noc4cc(F)ccc34)CC1)CCCC2` [Risperidone, reference compound], in the data set on serotonin receptors, the serotonin receptor antagonism entry is “potent antagonists at serotonin receptors”. In addition, the dopamine receptor antagonism result in the data set with dopamine receptors is reported as “relatively potent antagonists at dopamine receptors”. Further, in data set [2] (setting [9]), the “Percent Reduction … Rearing” value is on record as 51%. For the same molecule, the “reduction of METH-induced rearing” value in data set [2] (setting [12]) amounted to 51%. Besides, the “Percent Reduction … Crossing” value in [3] (setting [9]) is reported as 43%.

With `COc1ccc(C(=O)N2CCCC2=O)cc1` [aniracetam, N-anisoyl-2-pyrrolidinone], in data set [4], the “fraction of drug converted to anisoyl-GABA” value is on record as “about 80%”.

For `CN(C)CCCN1c2ccccc2Sc2ccc(Cl)cc21` [chlorpromazine], in the data set on D2 dopamine receptor, the “D2 dopamine receptor antagonism” value is reported as “potently antagonize the D2 dopamine receptor”.

As for `CNC1(c2ccccc2Cl)CCCCC1=O` (stereo not shown) [ketamine], the “effect on behavior in animals” value in the data set on behavior in animals is listed as “produce aberrant behavior in animals”. In addition, in the data set on psychotic symptoms, the “effect on symptoms in patients” value is listed as “exacerbate symptoms in patients” and the effect in volunteers result is given as “produce a range of psychotic symptoms in volunteers”.

Regarding `Cc1cc2c(s1)Nc1ccccc1N=C2N1CCN(C)CC1` [olanzapine], in the data set on serotonin receptors, the serotonin receptor antagonism result is listed as “potent antagonists at serotonin receptors”. The dopamine receptor antagonism result in the data set with dopamine receptors is reported as “relatively potent antagonists at dopamine receptors”.

As for `c1ccc(C2(N3CCCCC3)CCCCC2)cc1` [phencyclidine], the “effect on behavior in animals” value with behavior in animals is “produce aberrant behavior in animals”. For the same molecule, in the data set with psychotic symptoms, the “effect on symptoms in patients” value is on record as “exacerbate symptoms in patients” and the effect in volunteers result was “produce a range of psychotic symptoms in volunteers”.
